{"source": "patent US7815900B1", "about": "“Use of C3-C5 monosaccharides to protect keratinous fibers” (L'Oréal S.A., priority 2000, dated 2010)", "key": {"[1]": {"assay": "Dry tensile strength (Instron) after heat cycles", "procedure": "Normal blonde hair was bleached with Clairol Basic White Bleach (40 volume H2O2) for 20 min at standard room temperature and humidity. The bleached swatches were rinsed with tap water, and soaked in an excess of deionized water for 2 hours. The swatches were air-dried and equilibrated for 48 hours prior to further treatment. Some of the bleached swatches were subsequently “permed” using a Reforming Lotion (10% TGA, pH 8.8, 20 minutes) and then neutralized with 2% H2O2, pH 3 (5 minutes). The bleached/permed swatches were rinsed with tap water, and soaked in an excess of deionized water for 2 hours. The swatches were air-dried and equilibrated for 48 hours prior to further treatment. The swatches that were heat treated were treated with 0.06M solutions of hexoses and pentoses for 10 min at 45° C. and then were heated for 12 cycles. The swatches were rinsed after the heat application.\nTensile strength was determined using both the Instron (50 dry fibers per tests) and the Dia-Stron (100 wet fibers per test), with the stretching rate of 100 mm/min. The following parameters were determined: Young's Modulus (N/m^2), Work to stretch 25% (J/m^2); Extension to Break (degree of elongation) (%); Work to Break (J/m^2).\nNormal blonde hair was bleached with Clairol Basic White Bleach, 40 volume H2O2, for 20 min at room temperature. One batch of normal and bleached hair swatches underwent five heat cycles at 130° C., where one treatment cycle involved the following steps (1-4):\n1. The swatches were treated with 0.06 M solutions of monosaccharides in deionized water (about 1 wt %) for 10 min at 45° C.\n2. The treated swatches were blow-dried for 1 min.\n3. The heat was applied for 1 min in the form of a flat hair iron Windmere “Solid Gold” (130° C.).\n4. The swatches were rinsed and blot-dried with a paper-towel.\nThe treatment solutions included four pentoses (D-xylose, D-arabinose, D-lyxose, and D-ribose, 1% each) and one hexose (1.2% D-glucose). Deionized water was used as a control treatment. After the heat experiment, the hair was rinsed in water, air-dried, and equilibrated for 24 hours in the humidity chamber at 25° C. and 50% RH prior to further testing. These swatches are referred to as treated at 130° C.\nA second batch of normal and bleached hair swatches were treated in a similar way and blow-dried, without application of the hot iron. The treatment was also repeated 5 times, the swatches from the second batch are referred to as treated at 45° C.\nBoth the bleached and the bleached/permed hair were subjected to heat treatment, as in Example 2. The heat treatment experiment involved 12 heat cycles including application of sugar or control solution before each heat application, and rinsing after the heat application. Deionized water was used as a control treatment.\nAfter the heat experiment, the hair was rinsed in water, air-dried, and equilibrated for 24 h in the humidity chamber at 25° C. and 50% RH prior to further testing. The effect of the hexoses vs. pentoses on the dry tensile strength (INSTRON) and the alpha-structure (doublet peak area, DSC) was tested on the bleached hair (Table 13). The effect of a hexose (D-glucose) vs. a pentose (D-Xylose) on wet tensile strength (DIA-STRON) was tested both on the bleached and the bleached/permed hair (Table 14). Application of 0.06M solutions of pentoses protected the bleached and the bleached/permed hair against thermal damage (α-structure; wet and dry tensile strength)."}, "[2]": {"assay": "Wet tensile strength (Dia-Stron) after heat cycles", "conditions": "for Work 25% (Wet): 0.06 M solutions; for Work 25% (Wet) / Extension-Break / Work 25% / Work-Break / Young's Modulus: n = 100 fibers; for Extension-Break / Work 25% / Work-Break / Young's Modulus: 0.06 M, DIA-STRON; for Dia-Stron, wet fibers Extension: 1.0% solution, n = 100", "procedure": "Normal blonde hair was bleached with Clairol Basic White Bleach (40 volume H2O2) for 20 min at standard room temperature and humidity. The bleached swatches were rinsed with tap water, and soaked in an excess of deionized water for 2 hours. The swatches were air-dried and equilibrated for 48 hours prior to further treatment. Some of the bleached swatches were subsequently “permed” using a Reforming Lotion (10% TGA, pH 8.8, 20 minutes) and then neutralized with 2% H2O2, pH 3 (5 minutes). The bleached/permed swatches were rinsed with tap water, and soaked in an excess of deionized water for 2 hours. The swatches were air-dried and equilibrated for 48 hours prior to further treatment. The swatches that were heat treated were treated with 0.06M solutions of hexoses and pentoses for 10 min at 45° C. and then were heated for 12 cycles. The swatches were rinsed after the heat application. Tensile strength was determined using both the Instron (50 dry fibers per tests) and the Dia-Stron (100 wet fibers per test), with the stretching rate of 100 mm/min. The following parameters were determined: Young's Modulus (N/m^2), Work to stretch 25% (J/m^2); Extension to Break (degree of elongation) (%); Work to Break (J/m^2). Both the bleached and the bleached/permed hair were subjected to heat treatment, as in Example 2. The heat treatment experiment involved 12 heat cycles including application of sugar or control solution before each heat application, and rinsing after the heat application. Deionized water was used as a control treatment. After the heat experiment, the hair was rinsed in water, air-dried, and equilibrated for 24 h in the humidity chamber at 25° C. and 50% RH prior to further testing. The effect of the hexoses vs. pentoses on the dry tensile strength (INSTRON) and the alpha-structure (doublet peak area, DSC) was tested on the bleached hair (Table 13). The effect of a hexose (D-glucose) vs. a pentose (D-Xylose) on wet tensile strength (DIA-STRON) was tested both on the bleached and the bleached/permed hair (Table 14). Application of 0.06M solutions of pentoses protected the bleached and the bleached/permed hair against thermal damage (α-structure; wet and dry tensile strength)."}, "[3]": {"conditions": "bleached hair after 12 heat cycles, 0.06 M solutions, n = 100 fibers"}, "[4]": {"conditions": "bleached hair, 5 heat cycles at 130° C., 0.06 M solutions, n = 50 fibers"}, "[5]": {"conditions": "dry bleached hair, 12 heat cycles, 0.06 M, INSTRON, n = 50 fibers"}, "[6]": {"conditions": "dry, bleached hair, 5 cycles at 45° C., 0.06 M solutions, n = 50 fibers"}, "[7]": {"conditions": "bleached hair after 12 heat cycles"}, "[8]": {"conditions": "bleached/permed hair after 12 heat cycles"}, "[9]": {"conditions": "wet bleached hair (blonde hair in the source) after 12 heat cycles"}, "[10]": {"conditions": "wet bleached/permed hair after 12 heat cycles"}}, "data": [{"smiles": "O=C[C@H](O)[C@@H](O)[C@H](O)[C@H](O)CO", "note": "[D-Glucose, reference compound]", "values": [{"measurement": "Work 25% (Dry)", "setting": "[1]; [3]", "value": "913.9 +/− 158.2 J/m^2"}, {"measurement": "Work 25% (Dry)", "setting": "[1]; [4]", "value": "864.7 +/− 184.4 J/m^2"}, {"measurement": "Extension-Break", "setting": "[1]; [5]", "value": "56.01 +/− 7.21%"}, {"measurement": "Work 25%", "setting": "[1]; [5]", "value": "913.9 +/− 158.2 J/m^2"}, {"measurement": "Work-Break", "setting": "[1]; [5]", "value": "2,599 +/− 604 J/m^2"}, {"measurement": "Young's Modulus", "setting": "[1]; [5]", "value": "4,623 +/− 813 MN/m^2"}, {"measurement": "Work 25%", "setting": "[1]; [6]", "value": "984.6 +/− 169.6 J/m^2"}, {"measurement": "protection against heat treatment based on tensile properties and DSC, in words", "setting": "[2]; Example 2, 12 heat cycles", "value": "little or no protection"}, {"measurement": "Work 25% (Wet)", "setting": "[2]; [7]", "value": "187.0 +/− 74.8 J/m^2"}, {"measurement": "Work 25% (Wet)", "setting": "[2]; [8]", "value": "155.0 +/− 47.5 J/m^2"}, {"measurement": "Extension-Break", "setting": "[2]; [9]", "value": "64.20 +/− 10.4%"}, {"measurement": "Work 25%", "setting": "[2]; [9]", "value": "187.0 +/− 74.8 J/m^2"}, {"measurement": "Work-Break", "setting": "[2]; [9]", "value": "1,130 +/− 453 J/m^2"}, {"measurement": "Young's Modulus", "setting": "[2]; [9]", "value": "397.0 +/− 106.0 MN/m^2"}, {"measurement": "Extension-Break", "setting": "[2]; [10]", "value": "63.50 +/− 7.65%"}, {"measurement": "Work 25%", "setting": "[2]; [10]", "value": "155.0 +/− 47.5 J/m^2"}, {"measurement": "Work-Break", "setting": "[2]; [10]", "value": "979.0 +/− 300 J/m^2"}, {"measurement": "Young's Modulus", "setting": "[2]; [10]", "value": "136.0 +/− 92.5 MN/m^2"}]}, {"smiles": "O=C[C@H](O)[C@@H](O)[C@H](O)CO", "note": "[D-Xylose]", "values": [{"measurement": "Work 25% (Dry)", "setting": "[1]; [3]", "value": "1,204 +/− 215 J/m^2"}, {"measurement": "Work 25% (Dry)", "setting": "[1]; [4]", "value": "1,051 +/− 191 J/m^2"}, {"measurement": "Extension-Break", "setting": "[1]; [5]", "value": "55.28 +/− 7.08%"}, {"measurement": "Work 25%", "setting": "[1]; [5]", "value": "1,204 +/− 215 J/m^2"}, {"measurement": "Work-Break", "setting": "[1]; [5]", "value": "3,161 +/− 771 J/m^2"}, {"measurement": "Young's Modulus", "setting": "[1]; [5]", "value": "5,802 +/− 1,161 MN/m^2"}, {"measurement": "Work 25%", "setting": "[1]; [6]", "value": "1,182 +/− 215 J/m^2"}, {"measurement": "protection of dry tensile strength, in words", "setting": "[1]; hair treated 5 cycles at 45° C. and at 130° C.", "value": "improved protection both at 45 °C and at 130 °C"}, {"measurement": "extension to break compared to non-treated or water-treated hair, in words", "setting": "[2]; bleached and bleached/permed hair, 1% solution prior to heat application", "value": "significantly shorter"}, {"measurement": "Dia-Stron, wet fibers Extension", "setting": "[2]; bleached hair after 12 cycles at 130° C.", "value": "52.80 +/− 9.29%"}, {"measurement": "Work 25% (Wet)", "setting": "[2]; [7]", "value": "432.0 +/− 137.0 J/m^2"}, {"measurement": "Dia-Stron, wet fibers Extension", "setting": "[2]; bleached/permed hair after 12 cycles at 130° C.", "value": "54.30 +/− 4.70%"}, {"measurement": "Work 25% (Wet)", "setting": "[2]; [8]", "value": "199.0 +/− 74.2 J/m^2"}, {"measurement": "protection against heat (wet tensile properties) compared to water and 1.2% D-glucose, in words", "setting": "[2]; wet bleached and bleached/permed hair, 12 heat cycles, 1% solution", "value": "statistically significant protection against heat"}, {"measurement": "Extension-Break", "setting": "[2]; [9]", "value": "52.80 +/− 9.29%"}, {"measurement": "Work 25%", "setting": "[2]; [9]", "value": "432.0 +/− 137.0 J/m^2"}, {"measurement": "Work-Break", "setting": "[2]; [9]", "value": "1,600 +/− 526 J/m^2"}, {"measurement": "Young's Modulus", "setting": "[2]; [9]", "value": "434.0 +/− 99.1 MN/m^2"}, {"measurement": "Extension-Break", "setting": "[2]; [10]", "value": "54.30 +/− 4.70%"}, {"measurement": "Work 25%", "setting": "[2]; [10]", "value": "199.0 +/− 74.2 J/m^2"}, {"measurement": "Work-Break", "setting": "[2]; [10]", "value": "620.0 +/− 231.0 J/m^2"}, {"measurement": "Young's Modulus", "setting": "[2]; [10]", "value": "170.0 +/− 88.6 MN/m^2"}]}]}
